# Source: patent publication US9738669B2, “Pentaaza macrocyclic ring complexes possessing oral bioavailability” (Galera Labs, LLC, priority 2015, dated 2017)
# Legend:
# [1] = system: rats subjected to an experimental model of colitis; settings: ip injection; cited from earlier work
# [2] = system: rat model of inflammation; settings: ip; cited from earlier work
# [3] = system: rat model of collagen-induced arthritis; settings: ip; cited from earlier work
# [4] = system: lethal total body irradiation of adult mice; settings: ip; cited from earlier work
# [5] = system: hamster model of acute, radiation-induced oral mucositis; settings: ip; cited from earlier work
# [6] = Intraduodenal (id) bioavailability screen in minipigs, plasma level of parent Mn complex by HPLC/MS/MS; format: in vivo, Gottingen minipig; settings: id 10 mg/kg, vs 1 mg/kg iv parent chloro complex, AUC0→24 h
# Description: Compounds were screened for oral bioavailability by injecting the formulated prodrugs directly into the duodenum (intraduodenal or id administration) of the minipig test subjects, thus bypassing the acidic environment of the stomach and thereby eliminating potentially misleading oral bioavailability results that could arise from alteration of the test article drug in the acid environment of the stomach.
# The studies were conducted at Xenometrics LLC (Stillwell, Kans.) and the id bioavailability was determined using various axial ligand derivative complexes of GC4419, GC4444, GC4403 and GC4401.
# Male Gottingen minipigs (4-5 mo old, 9-12 kg weight) were purchased from Marshall BioResources and housed at Xenometrics. […] The distal end was exteriorized with a reusable accessible hub (see surgical details below). During a recovery period of at least 2 weeks the minipigs were handled daily to acclimate them to the test procedures, i.e., id dosing and blood collections. For each experiment, each minipig received a test article drug dissolved or suspended in an excipient vehicle. […] All dosing experiments were conducted in fasted animals. Food was withdrawn from the minipigs 16 hours before dosing. The minipigs had ad libitum access to water. Dosed minipigs were allowed access to food 6 hour after dosing. The test article was administered at a dose of 10 mg/kg parent drug in 0.1 mL/kg vehicle (e.g., 1.5 mL in 15 kg minipig) as a bolus injection (˜1 minute) via the id cannula. The actual amount of total test article drug administered varied with the formula weight of the prodrug. An equal volume of excipient vehicle was used to flush the cannula after the test article was administered. Approximately 6 hours later, corn oil was used to flush the cannula. After approximately 24 hours post-dose, the catheter was flushed with sterile saline solution and capped. At the following time-points 0.25, 0.5, 1, 2, 4, 8, 24 and 48 hour post-injection, 2 mL blood samples were collected by cranial vena cava puncture (4 mL Sodium heparin Vacutainer, 20 g 1.5″ needle) after the skin surface was wiped with ethanol. The minipig was placed in a sling in a recumbent position without anesthesia for the collection of blood samples. The minipigs were never used more than once per 7 days for experimentation. The blood samples were kept on ice until processed for plasma. Blood samples were centrifuged at 1200×g for ten minutes at 4° C. and plasma samples were transferred to 96 well plate tubes, capped and stored at −20° C. until shipment on dry ice to the analytical laboratory used for measuring the concentration of drug in the plasma. The concentration of the parent manganese pentaaza macrocylic ring complex (independent of the composition of the axial ligands) was measured in plasma using a validated HPLC/MS/MS method that is linear between 50 ng/mL and 20,000 ng/mL.
# The oils used for preparing the dosing solutions were used as supplied from commercial sources. The Capmul MCM (NF) is a mixture of mono/diglycerides of caprylic/capric acids and was supplied by ABITEC Corporation, Janesville, Wis. The Miglyol 812 N is a mixture of caprylic/capric acid triglycerides and was supplied by Cremer Oleo Division, Eatontown, N.J. Labrafil M 2125 CS (NF) is chemically defined to be linoleoyl polyoxyl-6 glycerides NF and was supplied by Gattefosse, SAINT-PRIEST Cedex, France. Peceol is chemically defined to be the monoglyceride, glyceryl monooleate NF, and was supplied by Gattefosse, SAINT-PRIEST Cedex, France. Maisine 35-1 is chemically defined to be the monoglyceride glyceryl monolinoleate (NF) and was supplied by Gattefosse, SAINT-PRIEST Cedex, France. Labrasol (NF) is chemically defined to be caprylocaproyl polyoxyl-8 glycerides NF and was supplied by Gattefosse, SAINT-PRIEST Cedex, France. Labrafil M 1944 CS is chemically defined to be oleoyl polyoxyl-6 glycerides (NF), and is available from Gattefosse, SAINT-PRIEST Cedex, France. […]
# [7] = Solubility in water; format: physicochemical
# [8] = system: oral mucositis in head-and-neck cancer patients; settings: intravenous (iv) infusion, head-and-neck cancer patients undergoing chemoradiation therapy; cited from earlier work
# [9] = system: VEGFr inhibitor-induced pulmonary disease; settings: ip, rat model; cited from earlier work
# [10] = base oil Capmul MCM, 10% by weight
# [11] = base oil Miglyol 812N, 10% by weight
compound,measurement,setting,value
[Cl-].[Cl-].[Mn+2].c1cc2nc(c1)CN[C@@H]1CCCC[C@H]1NCCN[C@@H]1CCCC[C@H]1NC2 [GC4403],injury to the colon,[1],significantly reduce the injury to the colon
same,inflammation,[2],inhibit inflammation
same,joint disease,[3],prevent joint disease
same,radiation damage,[4],attenuate the radiation damage
same,radiation damage,[5],attenuate the radiation damage
same,Mini-Pig BioA,[6]; [10],9%
"[Cl][Mn][Cl].c1cc2nc(c1)CN[C@H]1CCCC[C@@H]1NCCN[C@H]1CCCC[C@@H]1NC2 [GC4419, reference compound]",solubility in water,[7],relatively readily soluble in water
same,oral mucositis,[8],reduce oral mucositis
same,VEGFr inhibitor-induced pulmonary disease,[9],attenuate VEGFr inhibitor-induced pulmonary disease
same,Mini-Pig BioA,[6]; [10],9%
same,Mini-Pig BioA,"[6]; base oil Labrafil M2125 CS, 10% by weight",7%
same,Mini-Pig BioA,"[6]; base oil Maisine 35-1, 10% by weight",8%
same,Mini-Pig BioA,[6]; [11],8%
same,Mini-Pig BioA,"[6]; base oil Peceol, 10% by weight",9%
"Manganese(II)bis-racemic-2-phenylpropionato[(4aS,13aS,17aS,21aS)-1,2,3,4,4a,5,6,12,13,13a,14,15,16,17,17a,18,19,20,21,21a-Eicosahydro-11,7-nitrilo-7H-dibenzo[b,h][1,4,7,10]tetraazacycloheptadecine-κN5,κN13,κN18,κN21,κN22]- [GC4705]",Mini-Pig BioA,[6]; [10],23%
same,Mini-Pig BioA,"[6]; base oil Peceol, 10% by weight",24%
"Manganese(II)bis-racemic-phenylglycinato[2S,21S-Dimethyl(4aR,13aR,17aR,21aR)-1,2,3,4,4a,5,6,12,13,13a,14,15,16,17,17a,18,19,20,21,21a-Eicosahydro-11,7-nitrilo-7H-dibenzo[b,h][1,4,7,10]tetraazacycloheptadecine-κN5,κN13,κN18,κN21,κN22]- [GC4715]",Mini-Pig BioA,[6]; [10],36%
"Manganese(II)bis-racemic-phenylglycinato[6R-Methyl(4aR,13aR,17aR,21aR)-1,2,3,4,4a,5,6,12,13,13a,14,15,16,17,17a,18,19,20,21,21a-Eicosahydro-11,7-nitrilo-7H-dibenzo[b,h][1,4,7,10]tetraazacycloheptadecine-κN5,κN13,κN18,κN21,κN22]- [GC4716]",Mini-Pig BioA,[6]; [10],34%
"Manganese(II)bis-racemic-phenylglycinato[(4aR,13aR,17aR,21aR)-1,2,3,4,4a,5,6,12,13,13a,14,15,16,17,17a,18,19,20,21,21a-Eicosahydro-11,7-nitrilo-7H-dibenzo[b,h][1,4,7,10]tetraazacycloheptadecine-κN5,κN13,κN18,κN21,κN22]- [GC4717]",Mini-Pig BioA,[6]; [10],26%
"Manganese(II)bis-racemic-phenylglycinato[(4aS,13aS,17aS,21aS)-1,2,3,4,4a,5,6,12,13,13a,14,15,16,17,17a,18,19,20,21,21a-Eicosahydro-11,7-nitrilo-7H-dibenzo[b,h][1,4,7,10]tetraazacycloheptadecine-κN5,κN13,κN18,κN21,κN22]- [GC4720]",Mini-Pig BioA,[6]; [10],33%
same,Mini-Pig BioA,[6]; [11],32%
